Results taken from ChEMBL document CHEMBL1944587, “4-Piperidin-4-ylidenemethyl-benzamides as δ-opioid receptor agonists for CNS indications: identifying clinical candidates” (Bioorg Med Chem Lett, 2012).

Test: physchem
Conditions: octanol/water

Compound	logD
O=C(c1ccc(C(=C2CCN(Cc3cscn3)CC2)c2cccc3cccnc23)cc1)N1CCCC1	2.8
CN(C)C(=O)c1ccc(C(=C2CCN(Cc3cscn3)CC2)c2cccc3cccnc23)cc1	2.3
O=C(c1ccc(C(=C2CCN(Cc3cscn3)CC2)c2cccc3cccnc23)cc1)N1CCOCC1	2.1
CN1CCN(C(=O)c2ccc(C(=C3CCN(Cc4cscn4)CC3)c3cccc4cccnc34)cc2)CC1	2
O=C(c1ccc(C(=C2CCN(Cc3cscn3)CC2)c2cccc3cccnc23)cc1)N1CCC(O)CC1	1.9
